Assay results as given in patent US11786494B2, “Methods of modulation of branched chain acids and uses thereof” (Baylor College of Medicine, priority 2009, dated 2023).

Key:
[1] = cited from earlier work; for time to peak concentration: metabolites after a dose of 5 g of phenylbutyrate; for mean peak concentration: metabolites after oral dosing of phenylbutyrate; for elimination half-life: oral phenylbutyrate, estimated
BCKDC = molecular target: T1, BCKDC (Homo sapiens, UniProt P12694+P21953); assay: Leucine oxidation in lymphoblast cells in presence of CIC; format: cell-based; design: Transformed lymphoblast cell lines were available from all 5 MSUD patients and from 2 controls to measure BCKDC activity; endogenous in cells; settings: both control cells, CIC 1 mM
T1 sequence (P12694 46-445): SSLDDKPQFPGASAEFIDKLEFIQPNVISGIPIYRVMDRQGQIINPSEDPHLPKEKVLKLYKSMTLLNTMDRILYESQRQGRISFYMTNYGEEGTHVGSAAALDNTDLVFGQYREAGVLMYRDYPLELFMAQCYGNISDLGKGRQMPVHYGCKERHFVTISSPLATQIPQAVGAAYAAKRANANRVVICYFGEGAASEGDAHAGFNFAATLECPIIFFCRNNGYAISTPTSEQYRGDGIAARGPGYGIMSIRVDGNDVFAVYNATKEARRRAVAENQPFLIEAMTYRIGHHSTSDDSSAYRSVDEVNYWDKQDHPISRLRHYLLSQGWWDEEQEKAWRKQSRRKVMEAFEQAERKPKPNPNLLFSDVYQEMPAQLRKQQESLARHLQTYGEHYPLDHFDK
T1 sequence (P21953 51-392): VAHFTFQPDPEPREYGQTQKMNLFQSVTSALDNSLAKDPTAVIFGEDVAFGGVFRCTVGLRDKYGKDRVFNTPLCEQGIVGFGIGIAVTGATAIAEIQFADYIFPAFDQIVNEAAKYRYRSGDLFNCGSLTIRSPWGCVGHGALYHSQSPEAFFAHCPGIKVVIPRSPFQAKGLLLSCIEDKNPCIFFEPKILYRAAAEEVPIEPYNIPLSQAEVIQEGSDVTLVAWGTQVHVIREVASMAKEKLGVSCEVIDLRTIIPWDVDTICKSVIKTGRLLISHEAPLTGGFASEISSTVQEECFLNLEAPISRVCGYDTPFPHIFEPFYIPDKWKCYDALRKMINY
Method: FIGS. 8A-8C. FIGS. 8A and 8B show leucine oxidation in presence of CIC in lymphoblast cells from control subjects (C-660, C-661) and MSUD patients (P-1, -2, -3, -4, -5) untreated or treated with 1 mM phenylbutyrate for 48 h. Leucine oxidation was measured by using radioactive assay as described in Materials and Methods and is expressed in pmol CO2 released/min/mg protein. CIC was added to all reactions in 1 mM concentration. Values are means±SD (n=3), * p≥0.05, **p≥0.01. […] Images are representative of two independent experiments.
Because phenylbutyrate affects E1α phosphorylation state in vivo (see FIG. 5), leucine oxidation was measured in the same cell lines as in FIG. […] with CIC in the assay. […] Changes in BCAT isoenzyme activity also impacts BCKA production, in specific cases. All patient cell lines accumulated more KIC than observed in control cell lines.

[2] = molecular target: branched-chain alpha-keto acid dehydrogenase kinase (BDK) (Homo sapiens, UniProt O14874); settings: Harris et al., 1982; cited from earlier work
[3] = system: E1α-phospho/E1α, E2, BCATm, BCATc; assay: Western blotting of BCKD complex and BCAT isozymes in lymphoblast cells; format: cell-based, human; settings: for phosphorylation state of E1α: CIC 1 mM 2 h alone, or together with phenylbutyrate
[4] = substrate: O=C(O)CCCc1ccccc1; assay: E1 catalyzed decarboxylase activity (DCPIP assay); format: biochemical; settings: other: E1 catalyzed decarboxylase activity, [+] Phenylbutyrate
Method: (§1) To determine the effect of phenylbutyrate on individual BCAA catabolic enzymes, activities of mitochondrial branched chain amino transferase (BCATm) and BCKDC enzymes were measured with and without phenylbutyrate using purified recombinant enzymes. BCATm generates the BCKA products that are elevated in MSUD and are the substrates for BCKDC. BCATm activity was measured at pH 8.0 and 298 K as described in Example 2. Kinetics of the E1 decarboxylase reaction with and without phenylbutyrate were determined in the presence of an artificial electron acceptor 2, 6-dichlorophenolindophenol (DCPIP). The assay mixture contained 100 mM potassium phosphate, pH 7.5, 2.0 mM MgCl2, 0.2 mM thiamin diphosphate (ThDP) and 0.1 mM DCPIP. The rate of decarboxylation at 30° C. was measured by monitoring the reduction of the dye at 600 nm (24, 25). For the overall BCKDC activity assay, the enzymes were exchanged into phosphate buffer (30 mM potassium phosphate, pH 7.5) containing 5 mM DTT using a PD-10 column and the enzyme concentrations were calculated from the absorption maxima at 280 nm. The protein complex was reconstituted with E1, lipoylated E2 (lip-E2) and E3 at a molar ratio of 12:1:55, in which lip-E2 exists as a 24-mer. The assay mixture contained 30 mM potassium phosphate pH 7.5, 100 mM NaCl, 3 mM NAD^+, 0.4 mM CoA, 2 mM MgCl2, 2 mM DTT, 0.1% Triton X-100, and 2 mM ThDP. The overall reaction was monitored by formation of NADH at 340 nm. The apparent rate constants (kapp) at different substrate concentrations for all of the above assays were determined from the absorption changes at the individual wavelength maximum. The kapp rate constants were fit using the following equation: kapp=kcat[S]/(Km+[S])

[5] = substrate: O=C(O)CCCc1ccccc1; assay: Overall BCKDC activity assay (reconstituted E1, lip-E2, E3; NADH formation); format: biochemical; settings: other: Activity of BCKDC, [+] Phenylbutyrate
Method: as §1

[6] = substrate α-ketoisocaproate (KIC)
[7] = substrate α-ketoisovalerate (KIV)

For `O=C(O)Cc1ccccc1` [phenylacetate], the “time to peak concentration” value [1] is given as “around 3.5 h”, the mean peak concentration [1] is given as 45.3 µg/mL and the elimination half-life [1] is given as 1.3 h.

For `CC(C)CC(Cl)C(=O)O` (stereo not drawn) [CIC, Alpha-chloroisocaproate], the “leucine oxidation activity in the presence of CIC vs alone” value (BCKDC) is given as “higher activity”, the “inhibition of BDK” value [2] is given as “known inhibitor” and the “phosphorylation state of E1α” value ([3]; both controls and patients 4 and 5) is given as “decreases”. The “E2 or BCAT isozyme levels” value ([3]; lymphoblasts, CIC) was “did not have any effect” and the “phosphorylation state of E1α” value ([3]; patients 1, 2 and 3) was “no effect”.

For `NC(=O)CC[C@H](NC(=O)Cc1ccccc1)C(=O)O` [phenylacetateglutamine], the “time to peak concentration” value [1] is listed as “around 3.5 h”, the mean peak concentration [1] is listed as 62.8 µg/mL and the elimination half-life [1] is listed as 2.4 h.

B1: E1 (unphosphorylated) of BCKDC (Homo sapiens) (protein)
chain 1: T1 sequence (P12694 46-445)
chain 2: T1 sequence (P21953 51-392)
With B1 the Km ([4]; with KIC as substrate) was 24.0 ± 2.0 µM, the kcat ([4]; with KIC as substrate) was 0.337 ± 0.025 s⁻¹ and the Km ([4]; with KIV as substrate) was 22.0 ± 2.0 µM. For the same molecule, the kcat ([4]; with KIV as substrate) was 0.417 ± 0.0333 s⁻¹ and the Km ([4]; with KMV as substrate) was 21.0 ± 3.0 µM.

B2: BCKDC (Homo sapiens) (protein)
chain 1: T1 sequence (P12694 46-445)
chain 2: T1 sequence (P21953 51-392)
With B2 the Km ([5]; substrate α-keto-β-methylvalerate (KMV)) was 50.0 ± 3.0 µM, the Km [5, 6] was 41.0 ± 5.0 µM and the kcat [5, 6] was 4.25 ± 0.167 s⁻¹. The Km [5, 7] was 40.0 ± 5.0 µM and the kcat [5, 7] was 5.15 ± 0.25 s⁻¹.
